For one test, the target named is T1, human Fpn (Homo sapiens, UniProt Q9NP59).
T1 construct: FLAG (C); made in house; host or cells: Pichia pastoris
T1 sequence (Q9NP59 1-571): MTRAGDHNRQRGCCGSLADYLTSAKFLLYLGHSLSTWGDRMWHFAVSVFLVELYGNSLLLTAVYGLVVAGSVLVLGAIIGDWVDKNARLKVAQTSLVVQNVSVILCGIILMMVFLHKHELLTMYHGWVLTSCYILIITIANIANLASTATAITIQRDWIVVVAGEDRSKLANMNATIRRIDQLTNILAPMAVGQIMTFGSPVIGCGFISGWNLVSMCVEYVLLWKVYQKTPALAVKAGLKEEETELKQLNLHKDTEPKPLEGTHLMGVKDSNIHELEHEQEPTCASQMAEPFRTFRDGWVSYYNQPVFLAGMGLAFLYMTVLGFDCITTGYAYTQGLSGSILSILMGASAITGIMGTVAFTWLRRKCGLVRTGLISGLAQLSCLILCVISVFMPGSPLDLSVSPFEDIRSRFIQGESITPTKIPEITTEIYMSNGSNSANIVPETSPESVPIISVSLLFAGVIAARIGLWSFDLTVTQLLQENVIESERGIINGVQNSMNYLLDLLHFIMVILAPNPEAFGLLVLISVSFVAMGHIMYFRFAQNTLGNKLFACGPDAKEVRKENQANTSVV
The test can be described thus: Biophysical Ferroportin-Hepcidin Binding Assay (fluorescence polarization). The settings on record: average of multiple measurements; 1 μM human Fpn, 20 nM TMR-hepcidin; read-out: FP IC50. The method, boiled down:
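FP readout: a dose-dependent drop in TMR-hepcidin polarization (mP, from parallel and perpendicular emission) marked blocked binding to FLAG-tagged human Fpn purified from Pichia pastoris. Final levels were 1 μM Fpn and 20 nM TMR-hepcidin, with compound dilutions in duplicate, incubated 90 min at room temperature.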
(In general: Polarisation of emitted light reports the rotation of a fluorescent probe.)

The next test deals with T2, human Fpn-GFP fusion (Homo sapiens, UniProt Q9NP59).
T2 construct: expressed in transfected cells; host or cells: HEK-293 cell line #354 (derivative of HEK-293 Tet-ON Advanced, Clontech)
T2 sequence (Q9NP59 1-571): T1 sequence (Q9NP59 1-571)
The test can be described thus: Ferroportin Internalization and Degradation Assay (FACS). In kind it is cell-based. The settings on record: average of multiple measurements; Fpn-GFP MFI, HEK-293 cell line #354, FACS. The protocol: Growing HEK-293 #354 cells in doxycycline containing media induced expression of human Fpn-GFP fusion protein on the cell surface. […] Small molecular weight Fpn inhibitor compounds were tested for dose-dependent effects on the Fpn-GFP mean fluorescence intensity (MFI) on HEK-293 cell line #354, as described below. HEK #354 cells were harvested from ca. 80% confluent cultures, seeded at 0.6×10^6 (cells/ml in DMEM/F12 GlutaMAX™ medium (Invitrogen, Cat. 31331-028) containing 10% FBS (Clontech, Cat. 631106), 1% Penicillin-Streptomycin (Invitrogen, Cat. 15140-122), 200 μg/ml Hygromycin B (Invitrogen, Cat. 10687-010), Blasticidin 5 μg/ml, (Invitrogen, Cat. R210-01), 4 μg/ml doxycycline (Clontech, Cat. 631311), 50 μl per well of 384 well plates (Greiner; Cat. 781091) and grown at 37° C. with 5% CQ. After overnight incubation, 10 μl/well of dilution series of the test compounds were added in quadruplicates and plates were further incubated overnight at 37° C. with 5% CO2. Cells were washed once with FACS buffer (PBS containing 1% FBS, 2 mM EDTA and 0.05% NaN3), harvested in FACS buffer with 0.5 μg/ml propidium iodide (Sigma, Cat. P4864) and analyzed in a flow cytometer (CANTO™ II, BD Biosciences) equipped with high throughput sampler. Live HEK #354 cells were gated as propidium iodide negative population and analyzed for expression of Fpn-GFP.

For a further test, the system named is naïve WT C57BL/6 mice. The test can be described thus: Hypoferremia in naïve mice. Conditions: Mus musculus, po, 3 h, naïve WT C57BL/6 mice, relative to vehicle, read-out: Serum Iron Reduction at 3 h (%); for inhibition in vivo at 10 mg/kg: Dose 10 mg/kg p.o.; for inhibition in vivo at 30 mg/kg: Dose 30 mg/kg p.o.; for inhibition in vivo at 100 mg/kg: Dose 100 mg/kg p.o. In kind it is in vivo, mouse. The protocol: Female C57BL/6 mice (Janvier, France) at age of 9 weeks were fed a standard diet (Harlan Provimi Kliba 3436) and treated per os (p.o.) with compounds or the corresponding amount of vehicle at a volume of 10 ml/kg body weight. Fpn inhibitors were formulated in 0.5% methylcellulose/water or 20% cremophor EL/water and dosed p.o. in mice at 10, 30 or 100 mg/kg body weight. Three hours later, mice were pre terminally anesthetized in isoflurane chambers and blood was collected by retro-orbital bleeding. Mice were sacrificed by cervical dislocation and spleens, livers and duodena were harvested and used for biomarker analysis. All experiments have been conducted in compliance with the license approved by the responsible veterinarian authorities. Serum was isolated by centrifugation of blood into gel-containing microtainers and serum iron was determined by the MULTIGENT Iron assay (Abbott Diagnostics, 6K95). Eight mice per group were used and one-way ANOVA with Bonferroni's multiple comparison test was performed to analyze the statistical differences between the experimental groups.

Each structure is given as a SMILES string.

Broadly, the IC50 is the midpoint of a concentration-inhibition curve. In general, EC50 refers to the concentration that produces a half-maximal response. Higher therefore signals a less potent agent.

As to `O=C(NCc1ccccn1)c1coc(CCNCc2nc3ccccc3[nH]2)n1` [Example 137], at human Fpn, the concentration for half-maximal inhibition (IC50) stood at 1040 nM. Besides, the concentration giving a half-maximal response (EC50) at human Fpn-GFP fusion came to 11100 nM. Moreover, in the test with naïve WT C57BL/6 mice, the inhibition in vivo at 10 mg/kg was -2%, the inhibition in vivo at 30 mg/kg was 14% and the inhibition in vivo at 100 mg/kg stood at 25%.
For `O=C(NCc1ncccc1F)c1nc(CCNCCc2nc3ccccc3[nH]2)sc1Cl` [Example 154] the same measures were 30 nM, 130 nM, 13%, 35% and 56%.
For `O=C(NCc1ncccc1F)c1coc(CCNCc2nc3ccccc3[nH]2)n1` [Example 126] the same measures were 120 nM, 757 nM, 7%, 23% and 62%.
For `O=C(NCc1ncccc1F)c1csc(CNCCc2nc3ccccc3[nH]2)n1` [Example 118] the same measures were 250 nM, 4910 nM, 8%, 24% and 49%.
Turning to `O=C(NCc1ncccc1F)c1coc(CCNCCc2nc3c(F)cccc3[nH]2)n1` [Example 228], the concentration for half-maximal inhibition (IC50) on human Fpn turned out to be 21 nM. The compound further returned a concentration for a half-maximal effect (EC50) at human Fpn-GFP fusion of 460 nM. In the test with naïve WT C57BL/6 mice, the inhibition in vivo at 10 mg/kg came out at 13%, the inhibition in vivo at 30 mg/kg was found to be 26% and the inhibition in vivo at 100 mg/kg was found to be 55%.
Turning to `O=C(NCc1ncccc1F)c1coc(C2CN(CCc3nc4c(F)cccc4[nH]3)C2)n1` [Example 239], the IC50 on human Fpn stood at 38 nM. This compound returned an EC50 on human Fpn-GFP fusion of 320 nM. Also, in the test on naïve WT C57BL/6 mice, the inhibition in vivo at 10 mg/kg came to 12%, the inhibition in vivo at 30 mg/kg was found to be 20% and the inhibition in vivo at 100 mg/kg worked out at 51%.
For `O=C(NCc1ncccc1F)c1csc(CCNCCc2nc3ccccc3[nH]2)n1` [Example 94] the same measures were 44 nM, 220 nM, 30%, 50% and 80%.
For `O=C(NCc1ncccc1F)c1coc(CCNCCc2nc3ccccc3[nH]2)n1` [Example 127] the same measures were 23 nM, 81 nM, 17%, 47% and 54%.

Source of the values: patent publication US10738041B2, “Ferroportin inhibitors” (Vifor (International) AG, priority 2015, dated 2020).
